# Measurements published in the METLIN SMRT retention time set (Domingo-Almenara et al. 2019).
# Experiment: gradient 5% acetonitrile 3 min, to 50% in 2 min, to 85% in 15 min, held 3 min, 100 µL/min
# Settings: column: Zorbax Extend-C18 2.1 x 50 mm; eluents: water / acetonitrile, 0.1% formic acid
# How it was run: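 The system's dead and dwell volumes were 40 μL and 900 μL, with a Zorbax Extend-C18 column (2.1 × 50 mm, 1.8 μm) run at 100 μL/min in water and acetonitrile containing 0.1% formic acid each. Pure standards were analyzed in mixtures of ~100 molecules by HPLC–quadrupole time-of-flight mass spectrometry in positive and negative ionization mode. Retention time was assigned from computationally picked, manually inspected adduct peaks.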
row,SMILES,RP-LC retention time [s]
1,Cn1nc(C(=O)N2CCCC(C(=O)NC3CC3)C2)c2c1CCN(C(=O)COc1ccc(F)cc1)C2 (centres undefined),674
2,Cc1nn2c(CNS(=O)(=O)Cc3cccc(F)c3)c(-c3ccccc3)nc2s1,935
3,CS(=O)(=O)N1CCN(C(=O)c2ccc(-n3cccn3)nn2)CC1,601
4,CCCn1nnc2cc(S(=O)(=O)N3CCCC(C(=O)N4CCN(c5ccccn5)CC4)C3)ccc21 (centres undefined),652
5,Cc1ccc(Cc2nc(-c3ccnc(N4CCOCC4)c3)no2)cc1,908
6,Cc1ccc(N2CN(Cc3ccccc3)S(=O)(=O)c3cccnc32)cc1,1130
7,Cc1noc(C)c1CC(=O)N1CCc2ccccc2[C@H]1C,732
8,Clc1ccccc1-c1noc(Cc2nc(-c3ccccc3)cs2)n1,1180
9,Cc1nc(NC(=O)CN(C)c2nc3c(C)ccc(C)c3s2)sc1C(=O)N(C)C,803
10,O=C1C(c2cccs2)N(Cc2ccc3c(c2)OCO3)C(=O)CN1c1ccccc1 (centres undefined),899
11,COc1ccc(C(=O)NC2CCN(c3cc(-c4ccc(Cl)cc4)[nH]n3)C2)cc1 (centres undefined),776
12,CCn1c(CCNC(=O)c2cc(C)cc(C)c2)nc2cccnc21,666
13,CC(C)(C)c1csc(-c2csc(S(=O)(=O)Nc3ccc(Br)cc3F)c2)n1,1330
14,CCn1cc(-c2nc(-c3ccc(OC)c(OC)c3)no2)c(=O)c2cc(F)ccc21,811
15,Cc1cc(=O)n(CC(=O)Nc2ccccc2C)c(N)n1,590
16,COc1ccc(S(=O)(=O)Nc2cc(-c3cn4ccc(C)cc4n3)ccc2C)cc1C,687
17,Fc1cccc(Cn2cc(-c3noc(-c4ccc5c(c4)OCO5)n3)nn2)c1,962
18,O=C(CCCCCCC(=O)Nc1ccccc1)NO,660
19,COCCCNC(=O)c1cc(-c2ccccc2)nc2n[nH]c(-c3ccccc3)c12,769
20,COc1ccc(-c2cc3c(=O)n(Cc4cc(C)ccc4C)ccn3n2)cc1OC,1010
21,CCOc1ccc(-c2nc(C3CC(=O)N(c4ccc(F)cc4)C3)no2)cc1OCC (centres undefined),1050
22,COC(=O)c1c(C)[nH]c(C(=O)N2CCC(CC(=O)NCCCN3CCOCC3)CC2)c1C,575
23,COc1cc(-c2nnc(-c3ccc(C)c(S(=O)(=O)N4CCCC4)c3)o2)cc(OC)c1OC,986

row,SMILES,RP-LC retention time [s]
1,CCN(C(=O)Cc1c(C(=O)O)c(C)cn1CC)c1ccccc1,907
2,O=C(OCC(O)COC(=O)c1cccnc1)c1cccnc1,624
3,COCCN1C(=O)c2ccccc2C(C(=O)NCCC(C)C)C1c1cccs1 (centres undefined),874
4,O=C(O)C1CCc2sc(C(=O)N3CCOCC3)cc2C1 (centres undefined),625
5,CSc1ccc(-c2nc3nc(C)cc(C)n3c2Nc2ccccc2)cc1,755
6,CC1CCCC(NC(=O)c2cc(=O)[nH]c3ccc(Br)cc23)C1C (centres undefined),869
7,CN(C)C(=O)c1cccc(COc2ccc(N3C(N)=NC(N)=NC3(C)C)cc2Cl)c1,659
8,Cc1cnc(C2CN(S(=O)(=O)c3cccc(F)c3)C2)n1CC1CC1,656
9,Cn1c(N2CCCC(C(=O)NC3CCCCCC3)C2)cc(=O)n(C)c1=O (centres undefined),715
10,O=C(Cc1cc(-c2ccc3c(c2)OCO3)on1)Nc1ccc(F)c(F)c1F,888
11,CS(=O)(=O)N1CCCC(c2nnc(-c3ccccc3F)s2)C1 (centres undefined),757
12,O=C(Cc1ccc(F)cc1)NC1CCN(c2ccccc2)C1=O (centres undefined),770
13,CCc1ccc(CNC(=O)Cn2c(CC)nc3onc(C)c3c2=O)cc1,907
14,Cn1cccc(C(=O)NCCn2nc(-c3cccs3)ccc2=O)c1=O,591
15,CN(C)c1nc(Cl)nc2c1nc(Cl)n2C1CCCCO1 (centres undefined),1130
16,COc1ccc(S(=O)(=O)c2csc3c2NC(=O)CC3c2ccsc2)cc1 (centres undefined),892
17,CC(C)NC(=O)Nc1cccnc1N1CCOCC1,863
18,Cc1nn(-c2ccccc2)c2c1N(CC(=O)N1CCN(c3ccccc3)CC1)C(=O)CS2,839
19,O=C(NCC1CCOCC1)Nc1ccccc1C(F)(F)F,734
20,Cn1ncc2c3ccccc3n(CC(=O)NCCC3=CCCCC3)c2c1=O,904
21,COc1ccc(-c2nc(C3CC(=O)N(c4ccc(C)cc4)C3)no2)c(OC)n1 (centres undefined),1040
22,O=C(NCc1ccc(F)cc1Cl)C1CCCN(c2nccnc2Sc2ccccc2)C1 (centres undefined),1100
23,CCC(C(=O)NCCOC)n1nc(C)c2nn(-c3ccccc3)c(C)c2c1=O (centres undefined),763

row,SMILES,RP-LC retention time [s]
1,CCc1cnc2c(c1SCC(=O)N1CCCC1)c(=O)n(C)c(=O)n2C,732
2,O=C(CSc1ccc(N2CCCC(C(=O)NC3CC3)C2)nn1)Nc1ccc(Cl)cc1F (centres undefined),700
3,O=C(NCCn1nc(-c2cccs2)ccc1=O)c1ccc(=O)n(Cc2ccccc2)n1,678
4,COc1ccc(NC(=O)CCc2c(C)nn(-c3cc(N4CCCC4)ncn3)c2C)c(OC)c1,801
5,C=C(C)CN1CC[C@]23c4c5ccc(O)c4O[C@H]2c2[nH]c4ccccc4c2C[C@@]3(O)[C@H]1C5,647
6,Cc1cnc(C2CN(C(=O)c3ccsc3)C2)n1CC1CC1,595
7,CCN(CC)S(=O)(=O)c1ccc2c(c1)CC(C(=O)NCCN1CCCCCC1)N2C(C)=O (centres undefined),631
8,Cc1cc(S(=O)(=O)N2CCCC(Cn3cnc4cccnc43)C2)ccc1Cl (centres undefined),866
9,COc1ccc(S(=O)(=O)N2CCCC(C(=O)N3CCCC3)C2)cc1C (centres undefined),806
10,O=C(Cc1ccc(F)cc1)Nc1nnc(-c2ccc(Br)cc2)s1,952
11,Cc1ccc(NC(=O)C2CCCN2S(=O)(=O)c2cc3c(cc2C)NC(=O)C(C)O3)cc1F (centres undefined),860
12,O=S(=O)(c1ccccc1Br)N1CCC(c2noc(-c3ccccc3)n2)CC1,1160
13,Cc1ccc(C)c(N2CCN(c3ccnc(SCC(=O)Nc4ccc5c(c4)OCO5)n3)CC2)c1,858
14,CCCc1noc(-c2ccc3nnc(CC(=O)Nc4cc(C)cc(C)c4)n3c2)n1,947
15,Clc1cccc(-c2nc3ccc(Cl)cn3c2Nc2ccc3c(c2)OCCO3)c1,939
16,COc1ccc(-c2nc3cnccn3c2Nc2ccc(F)cc2)cc1OC,768
17,Cc1ccccc1Oc1nccn2c(=O)n(CC(=O)Nc3ccccc3)nc12,856
18,COC(=O)c1ccc2c(=O)n(-c3cccc(OC)c3)c(N3CCCCCC3)nc2c1,1210
19,O=C(CCNc1cnc2cnccn12)Nc1ccc(N2CCOCC2)cc1,534
20,Cc1ccc(Nc2ccc(N)cc2S(=O)(=O)O)cc1,652
21,CC(=O)c1ccc(NC(=O)CNS(=O)(=O)c2ccc(C(C)(C)C)cc2)cc1,663
22,c1cc(-c2noc(COC3CCCN(Cc4ccoc4)C3)n2)ccn1 (centres undefined),570
23,COc1cc(NC(=O)c2ncoc2-c2ccc(C)o2)cc(OC)c1OC,920

row,SMILES,RP-LC retention time [s]
1,CCOC(=O)c1cnc(N2CCN(c3ccccn3)CC2)c2ccccc12,692
2,COC(=O)C1=C(CN2CCCC2)NC(=O)NC1c1ccccc1C (centres undefined),588
3,COc1ccc(CN(C)Cc2cc(=O)n3ccc(C)cc3n2)cc1OC,587
4,Cn1c(=O)n([C@H]2CCCN(C(=O)Nc3ccc4c(c3)OCCO4)C2)c2ncccc21,684
5,Cn1ccc2cc(S(=O)(=O)N3CCCC(C(=O)NC4CCCCCCC4)C3)ccc21 (centres undefined),1080
6,Cc1ccc(NC(=O)C2CCN(C(=O)c3ncn4c3COC(c3ccccc3)C4)CC2)cc1 (centres undefined),626
7,O=C(CSc1nc2ccccc2s1)Nc1cccn2cc(-c3ccccc3)nc12,1110
8,Cc1nc(-c2ccc3c(c2)n(CC(=O)NC2CCCCCC2)c(=O)n3C(C)C)no1,841
9,COc1ccc(OC)c(CNC(=O)CN2CCN(Cc3ccc(F)cc3)C2=O)c1,787
10,CCc1ccc(/C=C2/SC(=S)NC2=O)cc1,1070
11,CN(C)C(=O)c1csc(S(=O)(=O)N2CCC(C(=O)NCc3cccnc3)CC2)c1,579
12,CCCOC(=O)c1cnc2nc(C)ccc2c1NCc1ccc2c(c1)OCO2,734
13,O=C(Nc1cccc(Cl)c1)Nc1cnn(-c2ncncc2N2CCOCC2)c1,735
14,CN(C)CCCNC(=O)C1CCN(c2nc3ccc(-c4ccc(F)cc4)nc3s2)CC1,686
15,Cc1ccc(NS(=O)(=O)c2cc(-c3nc(C(C)C)cs3)cs2)c(Br)c1,1220
16,Cn1nc(-c2nc(C3CC3)no2)c2c1CCN(C(=O)NCc1ccccc1)C2,788
17,O=C(NC1(c2nc(-c3ccncc3)no2)CCCCC1)C1CCCC1,861
18,Cc1nc(-c2ccc3c(c2)CCN3C(=O)Cc2ccc(F)cc2)cs1,990
19,COc1ccc(-c2nnc(COc3cccc(NC(=O)Cc4cccs4)c3)o2)cc1,906
20,O=C(Cn1ccc2ccc(N3CCOCC3)nc21)NCc1ccc(Br)cc1,915
